Results on ten compounds are retold here after patent US9504746B2, “Pharmaceutical compositions of 4-(3-chloro-4-(cyclopropylaminocarbonyl)aminophenoxy)-7-methoxy-6-quinolinecarboxamide” (Eisai R&D Management Co., Ltd., priority 2004, dated 2016).

This data set is described as follows: pH of 5% (w/w) aqueous solution or suspension of additive. It counts as physicochemical. As to conditions: 5% (w/w) aqueous solution or suspension of the additive itself.

With `O=P([O-])([O-])O.[K+].[K+]` [Example K2HPO4, Dipotassium hydrogenphosphate], the “pH value of 5% (w/w) aqueous solution or suspension” value is reported as 9.11.
For the compound `NCC(=O)O` [Glycine], the “pH value of 5% (w/w) aqueous solution or suspension” value is listed as 6.17.
With `[O]=[Mg]` [MgO, Magnesium oxide], the “pH value of 5% (w/w) aqueous solution or suspension” value is recorded as 10.63.
In the case of `O=C([O-])[O-].[Na+].[Na+]` [Na2CO3, Sodium carbonate], the “pH value of 5% (w/w) aqueous solution or suspension” value was found to be 11.45.
On to `O=P([O-])([O-])O.[Na+].[Na+]` [Na2HPO4, Disodium hydrogenphosphate], for which the “pH value of 5% (w/w) aqueous solution or suspension” value is 9.26.
With `O=C([O-])O.[Na+]` [NaHCO3, Sodium hydrogencarbonate], the “pH value of 5% (w/w) aqueous solution or suspension” value was 8.15.
The same measure for `[Na+].[OH-]` [NaOH, Sodium hydroxide]: 13.56.
The same measure for `CC(=O)[O-].[Na+]` [Sodium acetate]: 8.46; for `O=C([O-])CC(O)(CC(=O)[O-])C(=O)[O-].[Na+].[Na+].[Na+]` [Sodium citrate]: 8.22.
As to `O=C1O[C@H](CO)[C@@H](O)[C@H](O)[C@H]1O` [δ-Gluconolactone], the “pH value of 5% (w/w) aqueous solution or suspension” value came out at 2.40.
